Source: patent US10507213B2, “Method for treating cancer using a selenourea-coordinated gold(I)-carbene complex” (King Fahd University of Petroleum and Minerals, priority 2017, dated 2019)

How the values were obtained:
[1] = tested on: A549 (lung carcinoma); assay: in vitro cytotoxicity, MTT assay, A549; type: cell-based, human; conditions: 72 h incubation, three independent experiments, read-out: IC50 values against A549 cancer cell line
Protocol: The complexes, [Au(IPr)Cl] and [Au(IPr)(Seu)]PF6 (1) were tested for their in vitro cytotoxic effects against human cell lines; MCF7 (breast cancer), HCI15 (colon cancer) and A549 (lung carcinoma) as reported previously. See M. Altaf, M. Monim-ul-Mehboob, A. A. A. Seliman, A. A. Tsai), V. Dhuna, G. Bhatia, K. Dhuna, Synthesis, X-ray Structures, Spectroscopic Analysis and Anticancer Activity of Novel Gold(I) Carbene Complexes, J. Organomet. Chem, 765 (2014) 68-79, incorporated herein by reference in its entirety. The cells were seeded at the concentration of 3×10^3 cells/well in 100 μL of DMEM containing 10% fetal bovine serum (FBS) in a 96-well tissue culture plate and incubated for 72 h at 37° C., 5% CO2 and 90% relative humidity in a CO2 incubator. […] The medium in the wells was cast off and 100 μL of DMEM containing MTT (0.5 mg/ml) was added to the wells, with subsequent incubation in the CO2 incubator at 37° C. in the dark for 4 h. After incubation, purple-colored formazan produced by the cells appeared as dark crystals in the bottom of the wells. The culture medium was carefully removed from each well to prevent disruption of the monolayer and 100 μL of dimethylsulfoxide (DMSO) was added to each well. The solution in the wells was thoroughly mixed to dissolve the formazan crystals which produce a purple solution. The absorbance of the 96 well-plates was measured at 570 nm with LabSystems Multiskan EX-ELISA reader against a reagent blank. The experimental results are calculated as the micromolar concentration of 50% cell growth inhibition (IC50) of each drug. The MTT assay was carried out in three independent experiments for each analysis.
The complexes, [Au(Ipr)Cl] and [Au(Ipr)(Seu)]PF6 or Complex (I), as well as cisplatin (standard anticancer drug) were tested for in vitro cytotoxicity against three human cancer cell lines; A549 (lung carcinoma), HCT15 (colon cancer cells) and MCF7 (breast cancer cells) using MTT assay.
The IC50 values (as μM) obtained from the plot of the concentration of compounds against the percentage of cell viability are given in Table 4. […]

[2] = tested on: MCF7 (breast cancer cells); assay: in vitro cytotoxicity, MTT assay, MCF7; type: cell-based, human; conditions: 72 h incubation, three independent experiments, read-out: IC50 values against MCF7 cancer cell line
Protocol: (§1) The complexes, [Au(IPr)Cl] and [Au(IPr)(Seu)]PF6 (1) were tested for their in vitro cytotoxic effects against human cell lines; MCF7 (breast cancer), HCI15 (colon cancer) and A549 (lung carcinoma) as reported previously. See M. Altaf, M. Monim-ul-Mehboob, A. A. A. Seliman, A. A. Tsai), V. Dhuna, G. Bhatia, K. Dhuna, Synthesis, X-ray Structures, Spectroscopic Analysis and Anticancer Activity of Novel Gold(I) Carbene Complexes, J. Organomet. Chem, 765 (2014) 68-79, incorporated herein by reference in its entirety. The cells were seeded at the concentration of 3×10^3 cells/well in 100 μL of DMEM containing 10% fetal bovine serum (FBS) in a 96-well tissue culture plate and incubated for 72 h at 37° C., 5% CO2 and 90% relative humidity in a CO2 incubator. After that 100 μL of 100, 50, 25 and 12.5 μM solutions of cisplatin and gold(I) complexes prepared in DMEM were added to the cells and the cultures were incubated for 72 h. The medium in the wells was cast off and 100 μL of DMEM containing MTT (0.5 mg/ml) was added to the wells, with subsequent incubation in the CO2 incubator at 37° C. in the dark for 4 h. After incubation, purple-colored formazan produced by the cells appeared as dark crystals in the bottom of the wells. The culture medium was carefully removed from each well to prevent disruption of the monolayer and 100 μL of dimethylsulfoxide (DMSO) was added to each well. The solution in the wells was thoroughly mixed to dissolve the formazan crystals which produce a purple solution. The absorbance of the 96 well-plates was measured at 570 nm with LabSystems Multiskan EX-ELISA reader against a reagent blank. The experimental results are calculated as the micromolar concentration of 50% cell growth inhibition (IC50) of each drug. The MTT assay was carried out in three independent experiments for each analysis. […]

[3] = tested on: HCT15 (colon cancer cells); assay: in vitro cytotoxicity, MTT assay, HCT15; type: cell-based, human; conditions: 72 h incubation, three independent experiments, read-out: IC50 values against HCT15 cancer cell line
Protocol: as §1

[4] = stability by square wave stripping voltammetry (SWSV) in phosphate buffer; type: physicochemical; conditions: phosphate buffer pH 7.0, SWSV, 50, 75 and 100 μM
Protocol: (§2) Electrochemical (Square wave stripping voltammetry, SWSV) measurements were performed on a CH Instrument (CHI 1232A) potentiostat. Electrochemical cell comprises of a platinum wire as a counter electrode, an Ag/AgCl saturated with KCl as reference electrode and glassy carbon electrode (GCE; 3.0 mm diameter, Model CHI104, CH Instruments, Austin, Tex.) as a working electrode inserted into 2.0 mL glass cell containing phosphate buffer solution, pH 7.0 as supporting electrolyte. 0.1 M buffer solution was prepared by mixing, appropriate volumes of 0.2 M monosodium phosphate and disodium phosphate prepared with distilled water. Stock solutions of the complex prepared with methanol, while L-tyrosine and L-tryptophan were prepared by dissolving in 0.10 M NaOH in ratio 1:4 with distilled water. GCE was polished with 0.05 μm alumina, rinsed with distilled water prior to every SWSV measurements at room temperature in a quiescent condition at potential windows between −0.20 V and 1.20 V for the stability and 0.00 V and 1.20 V for the interaction studies. Working conditions are; pulse width (increment) 4 mV, pulse height (amplitude) 25 mV and frequency, 15 Hz.
(§3) The stability and electrochemical behavior of complex 1 were examined by its electroactive properties in phosphate buffer solution of pH 7.0 using SWSV technique (Square wave stripping voltammetry). […]

[5] = solubility in phosphate buffer estimated from SWSV; type: physicochemical; conditions: 0.1 M phosphate buffer (pH 7.0); estimation based on the highest soluble concentration
Protocol: as §2, §3

[6] = stability in polar solvents; type: physicochemical; conditions: water, methanol, ethanol, acetone; deuterated solvents such as dichloromethane

Compound	IC50 [1]	IC50 [2]	IC50 [3]	stability in aqueous solution [4]	solubility in phosphate buffer [5]	stability in polar solvents [6]
N.N.[Cl][Pt][Cl] [Cisplatin]	42 ± 2 µM	23 ± 4 µM	32 ± 2 µM			
chlorido[1,3-Bis(2,6-di isopropylphenyl)imidazol-2-ylidene]gold(I) [[Au(Ipr)Cl]]	180 ± 2 µM	110 ± 2 µM	122 ± 1 µM			
CC(C)c1cccc(C(C)C)c1-n1cc[n+](-c2c(C(C)C)cccc2C(C)C)[c]1[Au-][Se+]=C(N)N.F[P-](F)(F)(F)(F)F [Complex 1, [Au(IPr)(Seu)]PF6]	82 ± 1 µM	75 ± 3 µM	76 ± 2 µM	stable in aqueous solution	≥ 8.53 mg/100 ml	stable in polar solvents such as water, methanol, ethanol and acetone
